Measurements taken from US8815862B2, “Co-crystal intermediates of rosuvastatin and methods of using same” (F.I.S. Fabbrica Italiana Sintetici S.p.A., priority 2011, dated 2014).

Tests used:
[1] = Solubility in a series of solvents at room temperature; assay type: physicochemical
Description: The solubility of co-crystal Rosuvastatin 2-aminopyrimidine hemihydrate in a series of solvents at room temperature is provided in Table 2 given below: […]

[2] = Polymorphism observed during screening and purification studies; assay type: physicochemical; settings: during screening and studies of the purification of Rosuvastatin
Description: Co-crystals of the present invention have a relative lack of polymorphism due to the higher complexity of the crystal structure: polymorphs of co-crystal Rosuvastatin 2-aminopyrimidine hemihydrate were not observed during screening and studies of the purification of Rosuvastatin. In contrast, form salts of Rosuvastatin amines having different polymorphs.

[3] = Stability study at 40° C. under vacuum (impurity/lactone content); assay type: physicochemical; settings: for lactone content after storage: 20 and 40 hours (final value); for chemical stability compared to Rosuvastatin acid: 40 h, hemihydrate; for lactone impurity content of starting product: before storage
Description: Stability Studies at 40° C. Under Vacuum of Co-crystal Rosuvastatin 2-Aminopyrimidine Hemihydrates Compared to Rosuvastatin
The co-crystal has only 3 impurities at 5.651, 5.948 and 6.674 (lactone) min.
For RSV, only some impurities (impurities in common with the co-crystal or impurities with a significant variation) were studied.
Storage conditions: 40° C. under vacuum for 20 and 40 hours.

[4] = Solid-state stability, stored at room temperature in a sealed vial (XRPD); assay type: physicochemical; settings: 3 weeks
[5] = Humidity stability, stored at room temperature at RH 100% (XRPD); assay type: physicochemical; settings: RH of 100%, 24 h
Description: Moreover, the solid maintains its good handling properties.

[6] = cited from earlier work
[7] = 40° C. under vacuum, 20 and 40 hours

| Compound | solubility in ACN ([1]; ACN) | solubility in AcOEt ([1]; AcOEt) | solubility in Acetone ([1]; Acetone) | solubility in EtOH ([1]; EtOH) | solubility in MIK ([1]; MIK) | solubility in MeOH ([1]; MeOH) | solubility in THF ([1]; THF) | polymorphs observed [2] | change of other impurities on storage [3, 7] | new impurities on storage [3, 7] | lactone content after storage ([3]; 40° C. under vacuum) | chemical stability compared to Rosuvastatin acid ([3]; 40° C. under vacuum, listed as Co-crystal Rosuvastatin 2-aminopyrimidine hemihydrate) | chemical stability compared to Rosuvastatin acid ([3]; 40° C. under vacuum, listed as co-crystal) | lactone impurity content of starting product [3] | crystalline transformation or loss of crystallinity (XRPD) [4] | XRPD / crystallinity after humidity exposure [5] | pKa [6] |
| --- | --- | --- | --- | --- | --- | --- | --- | --- | --- | --- | --- | --- | --- | --- | --- | --- | --- |
| Rosuvastatin 2-aminopyrimidine hemihydrate | 14 vol. | 20 vol. | 4 vol. | 10 vol. | 45 vol. | 3 vol. | 2 vol. | not observed | negligible | No new impurities were observed | 0.091% | higher than the Rosuvastatin acid | higher than the stability of the Rosuvastatin acid | 0.036% | does not show crystalline transformation (same XRPD) or loss of crystallinity | same XRPD without loss of crystallinity | – |
| CC(C)c1nc(N(C)S(C)(=O)=O)nc(-c2ccc(F)cc2)c1/C=C/[C@@H](O)C[C@@H](O)CC(=O)O [RSV, (E)-(3R,5S)-7-[4-(4-Fluorophenyl)-6-isopropyl-2-[(methylsulfonyl)(methyl)amino]pyrimidin-5-yl]-3,5-dihydroxyhept-6-enoic acid, reference compound] | – | – | – | – | – | – | – | – | increased with time | – | 39.84% | – | – | 17.267% | – | – | 4.6 |
| c1ccc2nccnc2c1 [quinoxaline] | – | – | – | – | – | – | – | – | – | – | – | – | – | – | – | – | 0.56 |
